In patent USRE40901E1, “Taxane derivatives and processes for the preparation thereof” (Indena S.p.A., priority 1999, dated 2009):

How the values were obtained:
[1] = tested on: cancerous cells of breast, lung, ovary, colon, prostate, kidney, pancreas; assay: cytotoxic and anticancer activity against cancerous cells; format: cell-based; conditions: statement in words, no data
[2] = tested on: cell lines expressing the MDR phenotype; assay: overcoming resistance of MDR cell lines; format: cell-based; conditions: statement in words, no data

CC(=O)O[C@H]1C(=O)[C@@]2(C)C([C@H](OC(=O)c3ccccc3)[C@]34OC(=O)O[C@H]3[C@H](OC(=O)[C@H](O)[C@H](CC(C)C)NC(=O)OC(C)(C)C)C(C)=C1C4(C)C)[C@]1(OC(C)=O)CO[C@@H]1C[C@H]2O (stereo partly drawn) [Compound (I), 13-(N-Boc-β-isobutylserinyl)-14β-hydroxybaccatine V, 1,14 carbonate]
cytotoxic and anticancer activities [1]: remarkable cytotoxic and anticancer activities | overcoming the resistance of cell lines expressing the MDR phenotype [2]: capable of overcoming the resistance
